Values quoted from earlier work as cited in patent publication US20250195455A1, “COMBINATION NASAL AND ORAL THERAPY FOR WEIGHT LOSS” (priority 2022, published 2025).
Read-outs that look alike come from different tables or passages of the source.

Settings: for evidence of weight loss: no drug trials for weight loss; for Average weight loss/one year: vs. 3% placebo

Row | Compound | Average weight loss vs. placebo (vs. placebo) [kg./year] | patients that have 5% weight loss/12 weeks [%] | patients that have 10% weight loss/12 weeks [%] | Average weight loss/one year [%] | also measured
1 | Albeglutide | 2.9 |  |  |  | 
2 | CN[C@H]1CC[C@@H](c2ccc(Cl)c(Cl)c2)c2ccccc21 [Sertraline] |  |  |  |  | evidence of weight loss: No evidence of weight loss
3 | C[C@@H](Cc1ccccc1)N(C)Cc1ccccc1 [Benzphetamine] |  | 80 | 50 | 10 | 
4 | Dulaglutide | 2.9 |  |  |  | 
5 | C[C@H]1CNCCc2ccc(Cl)cc21 [Lorcaserin] |  |  |  |  | weight loss/year vs. placebo (per year, vs. placebo): 3-5%
6 | C[C@H]1[C@H](c2ccccc2)OCCN1C [Phendimetrazine] |  | 80 | 50 | 10 | 
7 | CNCCC(Oc1ccc(C(F)(F)F)cc1)c1ccccc1 (centres unmarked) [Fluoxetine] |  |  |  |  | evidence of weight loss: No evidence of weight loss
8 | Semaglutide (HAEGTFTSDVSSYLEGQAAKEFIAWLVKGRG; Glucagon-like peptide 1(7-37) semaglutide; Aib8, R34K, C18 diacid side chain; UniProt P01275 98-128, looked up) [GLP-1 agonist] | 2.9 |  |  |  | 
9 | CCN(CC)C(C)C(=O)c1ccccc1 (centres unmarked) [Diethylpropion] |  | 80 | 50 | 10 | 
10 | CCCCCCCCCCC[C@@H](C[C@@H]1OC(=O)[C@H]1CCCCCC)OC(=O)[C@H](CC(C)C)NC=O [Orlistat] |  |  |  |  | weight loss (vs. placebo)/6 months (6 months, vs. placebo): 5%; net loss (decreased fat absorption): approximately 500 kcal/day; net loss (equivalent of the kcal/day net loss): 1 lb./week
11 | CC1(C)O[C@@H]2[C@@H](CO[C@@]3(COS(N)(=O)=O)OC(C)(C)O[C@@H]23)O1 [Topiramate] |  |  |  |  | efficacy (vs. placebo) (vs. placebo): Minimal, if any efficacy
12 | CC(C)(N)Cc1ccccc1 [Phentermine] |  | 80 | 50 | 10 | 
13 | Lixisenatide | 2.9 |  |  |  | 
